The values below come from PMC10004634 (PLOS ONE, 2023).

Each structure is given as a SMILES string. Where two headings read alike, the source gives them in different places.

Holding throughout (experiment): biochemical
Common to all, as to design: KINOMEscan scanMAX competition binding, DNA-tagged kinases, qPCR read-out, percent control at 300 nM
A general note: In qPCR the cycle at which signal appears reflects the starting amount.

Test [1] concerns the target SNRK (Homo sapiens, UniProt Q9NRH2).
For test [2], the target named is GSK3B (Homo sapiens, UniProt P49841).
Sequence of GSK3B (P49841 whole entry): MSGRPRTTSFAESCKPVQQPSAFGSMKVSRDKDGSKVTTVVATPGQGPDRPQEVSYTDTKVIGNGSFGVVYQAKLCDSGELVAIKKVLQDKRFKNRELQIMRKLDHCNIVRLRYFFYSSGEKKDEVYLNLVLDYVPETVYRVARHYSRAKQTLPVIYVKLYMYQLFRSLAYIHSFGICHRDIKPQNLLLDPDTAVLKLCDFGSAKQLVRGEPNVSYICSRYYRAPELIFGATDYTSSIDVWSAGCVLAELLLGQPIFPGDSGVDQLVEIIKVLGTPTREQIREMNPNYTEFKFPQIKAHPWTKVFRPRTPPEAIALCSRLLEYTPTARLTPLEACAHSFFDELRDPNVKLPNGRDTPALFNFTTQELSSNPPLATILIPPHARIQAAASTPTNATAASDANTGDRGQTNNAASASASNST
Test [3] has as its target EGFR(L858R,T790M) (Homo sapiens, UniProt P00533, L858R/T790M).
Test [4] has as its target CSNK1G2 (Homo sapiens, UniProt P78368).
Test [5] has as its target T1, TYK2(JH2domain-pseudokinase) (Homo sapiens, UniProt P29597).
T1 construct: JH2domain-pseudokinase

In test [6] the target is CAMKK1 (Homo sapiens, UniProt Q8N5S9).
Test [7] deals with LYN (Homo sapiens, UniProt P07948).
The target in test [8] is EGFR(S752-I759del) (Homo sapiens, UniProt P00533, DEL752-759).
Sequence of EGFR(S752-I759del) (P00533 with tags, fused parts or gaps DEL752-759): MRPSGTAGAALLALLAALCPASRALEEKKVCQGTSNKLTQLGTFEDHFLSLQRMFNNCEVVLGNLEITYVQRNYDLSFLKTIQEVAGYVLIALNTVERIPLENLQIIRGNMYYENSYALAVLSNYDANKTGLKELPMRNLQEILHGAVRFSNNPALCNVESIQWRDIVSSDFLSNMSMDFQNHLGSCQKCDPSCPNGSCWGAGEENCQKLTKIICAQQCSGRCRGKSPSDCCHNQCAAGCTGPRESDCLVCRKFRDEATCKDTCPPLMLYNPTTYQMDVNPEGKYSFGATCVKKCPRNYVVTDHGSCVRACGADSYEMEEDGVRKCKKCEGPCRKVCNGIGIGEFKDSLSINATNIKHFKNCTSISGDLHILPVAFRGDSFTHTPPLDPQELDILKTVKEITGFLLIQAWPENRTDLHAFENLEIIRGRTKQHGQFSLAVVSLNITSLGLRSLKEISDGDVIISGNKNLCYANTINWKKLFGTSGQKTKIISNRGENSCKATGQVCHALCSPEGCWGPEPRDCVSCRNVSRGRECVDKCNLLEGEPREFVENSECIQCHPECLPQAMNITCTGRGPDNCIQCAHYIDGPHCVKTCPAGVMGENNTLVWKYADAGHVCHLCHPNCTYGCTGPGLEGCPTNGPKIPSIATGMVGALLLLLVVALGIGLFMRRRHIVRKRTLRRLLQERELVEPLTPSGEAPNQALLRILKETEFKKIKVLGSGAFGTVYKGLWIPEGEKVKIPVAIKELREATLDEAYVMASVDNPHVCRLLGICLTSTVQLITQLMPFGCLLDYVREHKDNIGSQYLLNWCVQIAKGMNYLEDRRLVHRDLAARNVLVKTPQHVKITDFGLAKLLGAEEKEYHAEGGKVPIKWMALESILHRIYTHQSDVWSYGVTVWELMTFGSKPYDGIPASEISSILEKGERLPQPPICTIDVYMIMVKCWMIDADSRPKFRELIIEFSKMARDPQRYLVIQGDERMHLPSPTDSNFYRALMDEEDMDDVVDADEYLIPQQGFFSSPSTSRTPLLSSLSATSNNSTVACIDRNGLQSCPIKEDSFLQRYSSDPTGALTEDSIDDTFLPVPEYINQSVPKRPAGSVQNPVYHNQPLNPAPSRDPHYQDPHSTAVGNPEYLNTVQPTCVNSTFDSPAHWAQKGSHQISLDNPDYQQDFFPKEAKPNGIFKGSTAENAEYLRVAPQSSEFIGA
Test [9] addresses T2, RPS6KA4(Kin.Dom.2-C-terminal) (Homo sapiens, UniProt O75676).
T2 construct: Kin.Dom.2-C-terminal

The target of test [10] is T3, ABL1(F317L)-phosphorylated (Homo sapiens, UniProt P00519, F317L).
T3 construct: phosphorylated
T3 sequence (P00519 whole entry F317L): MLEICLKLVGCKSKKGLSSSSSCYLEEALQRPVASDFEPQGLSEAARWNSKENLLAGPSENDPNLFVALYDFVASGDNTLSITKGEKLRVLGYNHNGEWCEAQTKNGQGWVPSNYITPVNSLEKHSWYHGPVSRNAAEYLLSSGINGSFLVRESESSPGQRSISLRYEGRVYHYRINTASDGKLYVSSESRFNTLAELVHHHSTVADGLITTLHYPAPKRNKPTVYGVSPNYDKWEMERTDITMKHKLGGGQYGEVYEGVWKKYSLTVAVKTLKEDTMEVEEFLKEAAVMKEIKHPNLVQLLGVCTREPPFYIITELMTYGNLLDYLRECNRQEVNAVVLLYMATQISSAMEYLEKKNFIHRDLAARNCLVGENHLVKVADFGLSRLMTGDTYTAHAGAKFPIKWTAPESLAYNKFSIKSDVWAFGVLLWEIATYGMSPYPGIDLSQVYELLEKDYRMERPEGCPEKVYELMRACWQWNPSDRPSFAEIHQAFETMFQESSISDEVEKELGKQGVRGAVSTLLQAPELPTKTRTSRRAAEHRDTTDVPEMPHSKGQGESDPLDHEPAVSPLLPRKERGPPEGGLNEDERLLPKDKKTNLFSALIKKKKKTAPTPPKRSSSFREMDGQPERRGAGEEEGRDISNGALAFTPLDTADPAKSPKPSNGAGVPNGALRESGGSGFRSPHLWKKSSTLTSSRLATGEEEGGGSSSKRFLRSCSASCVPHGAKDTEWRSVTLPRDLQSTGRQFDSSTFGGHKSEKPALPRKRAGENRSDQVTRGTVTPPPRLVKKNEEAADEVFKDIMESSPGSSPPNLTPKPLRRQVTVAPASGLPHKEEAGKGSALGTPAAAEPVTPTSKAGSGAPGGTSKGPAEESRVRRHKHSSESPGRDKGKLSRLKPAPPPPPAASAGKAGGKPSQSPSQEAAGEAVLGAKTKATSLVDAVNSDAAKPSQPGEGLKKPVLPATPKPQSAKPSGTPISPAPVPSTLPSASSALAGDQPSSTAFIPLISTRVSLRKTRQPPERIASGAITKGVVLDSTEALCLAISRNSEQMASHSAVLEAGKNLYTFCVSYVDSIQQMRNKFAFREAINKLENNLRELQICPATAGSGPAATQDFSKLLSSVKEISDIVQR

The target in test [11] is T4, CTK (Homo sapiens, UniProt P42679).
T4 construct: gene MATK

For test [12], the target named is GSK3A (Homo sapiens, UniProt P49840).
Sequence of GSK3A (P49840 whole entry): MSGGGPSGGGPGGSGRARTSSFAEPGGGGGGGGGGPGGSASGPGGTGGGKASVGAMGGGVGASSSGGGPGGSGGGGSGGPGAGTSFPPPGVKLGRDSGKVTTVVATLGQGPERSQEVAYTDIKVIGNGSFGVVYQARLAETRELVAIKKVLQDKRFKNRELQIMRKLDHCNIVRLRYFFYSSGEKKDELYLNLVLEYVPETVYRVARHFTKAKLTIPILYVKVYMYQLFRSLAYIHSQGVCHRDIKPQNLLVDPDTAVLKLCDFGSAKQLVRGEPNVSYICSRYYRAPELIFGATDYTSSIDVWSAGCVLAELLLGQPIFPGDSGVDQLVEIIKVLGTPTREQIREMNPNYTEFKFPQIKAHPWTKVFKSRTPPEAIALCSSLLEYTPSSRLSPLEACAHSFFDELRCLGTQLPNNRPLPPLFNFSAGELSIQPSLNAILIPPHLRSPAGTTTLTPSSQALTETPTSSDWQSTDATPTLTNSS
In test [13] the target is T5, TAK1 (Homo sapiens, UniProt O43318).
T5 construct: gene MAP3K7

For test [14], the target named is T6, MLK3 (Homo sapiens, UniProt Q16584).
T6 construct: gene MAP3K11

Test [15] deals with PAK4 (Homo sapiens, UniProt O96013).
Sequence of PAK4 (O96013 whole entry): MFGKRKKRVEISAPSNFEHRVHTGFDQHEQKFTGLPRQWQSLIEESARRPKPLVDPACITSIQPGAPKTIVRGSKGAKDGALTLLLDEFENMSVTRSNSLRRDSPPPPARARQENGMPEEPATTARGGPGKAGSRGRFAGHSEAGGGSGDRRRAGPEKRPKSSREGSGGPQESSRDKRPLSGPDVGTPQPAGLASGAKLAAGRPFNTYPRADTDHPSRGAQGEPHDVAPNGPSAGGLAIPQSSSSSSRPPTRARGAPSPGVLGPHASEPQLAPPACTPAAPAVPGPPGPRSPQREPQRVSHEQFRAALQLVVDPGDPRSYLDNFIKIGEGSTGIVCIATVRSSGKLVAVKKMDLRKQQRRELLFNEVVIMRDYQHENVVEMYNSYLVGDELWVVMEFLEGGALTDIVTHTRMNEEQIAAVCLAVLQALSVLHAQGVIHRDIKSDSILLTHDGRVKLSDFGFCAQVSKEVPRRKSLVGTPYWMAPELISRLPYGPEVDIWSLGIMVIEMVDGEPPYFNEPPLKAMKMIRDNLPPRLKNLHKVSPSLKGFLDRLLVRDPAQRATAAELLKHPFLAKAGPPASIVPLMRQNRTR
Test [16] addresses RET (Homo sapiens, UniProt P07949).
The target in test [17] is RAF1 (Homo sapiens, UniProt P04049).
Test [18] concerns the target T7, ERK1 (Homo sapiens, UniProt P27361).
T7 construct: gene MAPK3

For test [19], the target named is FGFR4 (Homo sapiens, UniProt P22455).
For test [20], the target named is MUSK (Homo sapiens, UniProt O15146).
Test [21] addresses T8, PKAC-beta (Homo sapiens, UniProt P22694).
T8 construct: gene PRKACB

The target of test [22] is T9, YSK1 (Homo sapiens, UniProt O00506).
T9 construct: gene STK25

In test [23] the target is MYLK4 (Homo sapiens, UniProt Q86YV6).
Setting [24] is: read-out: Percent control / Acalabrutinib.
Where [25] appears, read: read-out: Percent control / Ibrutinib.
Setting [26] is: read-out: Percent control / Tirabrutinib.
Where [27] appears, read: read-out: Percent control / Zanubrutinib.

T7 sequence (P27361 whole entry): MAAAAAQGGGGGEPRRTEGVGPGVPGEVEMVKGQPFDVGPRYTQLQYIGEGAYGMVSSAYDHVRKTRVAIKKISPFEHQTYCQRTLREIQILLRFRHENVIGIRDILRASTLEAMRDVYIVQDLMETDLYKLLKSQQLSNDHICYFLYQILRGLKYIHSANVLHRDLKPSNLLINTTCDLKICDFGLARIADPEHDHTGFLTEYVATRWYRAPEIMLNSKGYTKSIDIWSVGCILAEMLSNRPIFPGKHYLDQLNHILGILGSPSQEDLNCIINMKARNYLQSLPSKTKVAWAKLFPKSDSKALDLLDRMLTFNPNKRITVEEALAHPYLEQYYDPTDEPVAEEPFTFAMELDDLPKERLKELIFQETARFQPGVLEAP
Sequence of SNRK (Q9NRH2 whole entry): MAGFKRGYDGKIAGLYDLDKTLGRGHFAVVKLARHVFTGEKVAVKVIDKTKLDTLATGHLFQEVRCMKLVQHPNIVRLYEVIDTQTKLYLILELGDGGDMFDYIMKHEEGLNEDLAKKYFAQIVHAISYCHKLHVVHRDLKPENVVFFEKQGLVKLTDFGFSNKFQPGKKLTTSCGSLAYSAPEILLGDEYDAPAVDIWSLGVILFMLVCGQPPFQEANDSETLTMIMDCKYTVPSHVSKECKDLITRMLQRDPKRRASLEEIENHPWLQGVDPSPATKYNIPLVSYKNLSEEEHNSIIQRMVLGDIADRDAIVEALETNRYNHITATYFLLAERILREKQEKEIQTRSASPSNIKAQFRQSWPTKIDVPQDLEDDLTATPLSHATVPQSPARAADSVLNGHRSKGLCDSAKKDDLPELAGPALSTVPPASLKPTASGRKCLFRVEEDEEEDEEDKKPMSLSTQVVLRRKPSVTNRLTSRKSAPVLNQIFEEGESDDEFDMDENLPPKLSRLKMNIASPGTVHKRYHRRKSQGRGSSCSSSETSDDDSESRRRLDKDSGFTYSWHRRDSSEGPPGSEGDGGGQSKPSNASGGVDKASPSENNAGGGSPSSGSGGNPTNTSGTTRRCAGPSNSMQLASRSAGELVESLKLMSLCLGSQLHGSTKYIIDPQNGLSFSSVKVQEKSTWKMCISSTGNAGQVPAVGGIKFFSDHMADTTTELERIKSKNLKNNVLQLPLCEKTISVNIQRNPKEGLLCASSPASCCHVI

`CC#CC(=O)N1CCC[C@H]1c1nc(-c2ccc(C(=O)Nc3ccccn3)cc2)c2c(N)nccn12` [Acalabrutinib]: the remaining binding at 0.3 µM is 93% in [1] (setting [24]); 97% in test [2] (setting [24]); 97% in test [3] (setting [24]); 87% in test [4] (setting [24]); 97% in [5] (setting [24]); 92% in [6] (setting [24]). Also, the remaining binding at 0.3 µM turned out to be 88% in test [7] (setting [24]); 97% in [8] (setting [24]); 96% in test [9] (setting [24]); 81% in test [10] (setting [24]); 97% in test [11] (setting [24]); 74% in [12] (setting [24]). Besides, the remaining binding at 0.3 µM was determined as 86% in test [13] (setting [24]); 87% in test [14] (setting [24]); 93% in test [15] (setting [24]); 87% in test [16] (setting [24]); 75% in test [17] (setting [24]); 92% in test [18] (setting [24]). Besides, the remaining binding at 0.3 µM in test [19] (setting [24]) amounted to 91%; in test [20] (setting [24]), 82%.
Turning to `C=CC(=O)N1CCC[C@@H](n2nc(-c3ccc(Oc4ccccc4)cc3)c3c(N)ncnc32)C1` [Ibrutinib], the remaining binding at 0.3 µM in test [21] (setting [25]) worked out at 85%; in [22] (setting [25]), 85%; in test [23] (setting [25]), 94%; in test [16] (setting [25]), 40%.
Take `CC#CC(=O)N1CC[C@@H](n2c(=O)n(-c3ccc(Oc4ccccc4)cc3)c3c(N)ncnc32)C1` [Tirabrutinib]: the remaining binding at 0.3 µM in test [3] (setting [26]) amounted to 100%; in test [7] (setting [26]), 76%; in test [8] (setting [26]), 96%; in [10] (setting [26]), 57%.
Consider `C=CC(=O)N1CCC([C@@H]2CCNc3c(C(N)=O)c(-c4ccc(Oc5ccccc5)cc4)nn32)CC1` [Zanubrutinib], for which the remaining binding at 0.3 µM in [1] (setting [27]) stood at 90%; in [2] (setting [27]), 74%; in test [4] (setting [27]), 88%; in test [5] (setting [27]), 82%; in test [6] (setting [27]) it was 87%; in test [21] (setting [27]) it was 82%. Besides, the remaining binding at 0.3 µM is 100% in test [9] (setting [27]); 88% in test [22] (setting [27]); 96% in test [23] (setting [27]); 98% in test [11] (setting [27]); 98% in test [12] (setting [27]); 83% in [13] (setting [27]). In addition, the remaining binding at 0.3 µM in test [14] (setting [27]) is 98%; in test [15] (setting [27]) it was 85%; in [17] (setting [27]), 88%; in test [18] (setting [27]), 87%; in [19] (setting [27]) it was 91%; in test [20] (setting [27]) it was 96%.
